By Ki is commonly meant the dissociation constant of the complex between target and ligand, obtained from inhibition or displacement.

Each structure is given as a SMILES string.

The target of one assay is T1, CCR2 (Homo sapiens, UniProt P41597).
T1 construct: Membranes were prepared from THP-1 cells; endogenous in cells; host or cells: THP-1 cells (membrane preparation)
T1 sequence (P41597 1-360 isoform P41597-2): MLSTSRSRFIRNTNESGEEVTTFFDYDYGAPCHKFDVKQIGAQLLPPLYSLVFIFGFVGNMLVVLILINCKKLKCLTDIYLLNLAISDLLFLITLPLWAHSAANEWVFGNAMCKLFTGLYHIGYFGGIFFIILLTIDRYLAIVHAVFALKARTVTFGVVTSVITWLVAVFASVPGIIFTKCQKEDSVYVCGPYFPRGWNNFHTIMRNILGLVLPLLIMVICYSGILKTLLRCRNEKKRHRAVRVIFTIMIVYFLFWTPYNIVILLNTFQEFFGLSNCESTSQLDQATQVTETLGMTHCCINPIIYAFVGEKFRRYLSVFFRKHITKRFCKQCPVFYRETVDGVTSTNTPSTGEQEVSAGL
Nature of the assay: CCR2 receptor membrane binding assay ([125I]MCP-1, THP-1 cell membranes, SPA beads). The following applies: @ 10 μM test compound; THP-1 membranes; read-out: CCR2 % ctrl @ 10 μM. In a few lines: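 Human THP-1 monocytic cell membranes, pre-coupled to WGA-PVT SPA beads, were incubated with compound and [125I]MCP-1 (ca. 25000 cpm) in 25 mM HEPES pH 7.2, 5 mM MgCl2, 0.5 mM CaCl2, 0.2% BSA, at 1% DMSO final. Bound radioactivity was counted after 8 h, and Ki was obtained by iterative mass-action fitting.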
In the case of `CCN(C1CCN(C2CCN(C(=O)c3ncnc(NCc4ccc(Cl)c(Cl)c4)c3C)CC2)CC1)S(C)(=O)=O` [Example 160], the remaining activity at 10 µM stood at 3%. Regarding `Cc1c(NCc2ccc(C(C)(C)C)cc2)ncnc1C(=O)N1CCCC(N2CCC(N(C)S(C)(=O)=O)CC2)CC1` (stereo not shown) [Example 161], the remaining activity at 10 µM is 30%.

Still in this assay, the particulars now being: dissociation constant hKi; [125I]MCP-1 binding to THP-1 membranes.
Molecule `Cc1c(NC[C@H]2CC[C@H](c3cccc(C(F)(F)F)c3)O2)ncnc1C(=O)N1CCC(N2CCC(N(C)S(C)(=O)=O)CC2)CC1` [Example 159ha] displayed an inhibition constant (Ki) of 0.027 µM. Take `Cc1c(NCC2CCC(c3ccc(C(F)(F)F)cc3)O2)ncnc1C(=O)N1CCC(N2CCC(N(C)S(C)(=O)=O)CC2)CC1` (stereo not shown) [Example 159hb]: the inhibitory constant (Ki) stood at 0.02 µM. Still for that read-out and setting: next, `CNC(=O)C1CCN(C2CCN(C(=O)c3ncnc(NCC4CCCC(c5ccccc5)C4)c3C)CC2)CC1` (stereo not shown) [Example 159i]: 0.024 µM; `Cc1cccc([C@H]2CC[C@H](CNc3ncnc(C(=O)N4CCC(N5CCC(N(C)S(C)(=O)=O)CC5)CC4)c3C)O2)c1` [Example 159ia]: 0.017 µM. `Cc1nc(NCC2CCC(c3ccc(C(F)(F)F)cc3)O2)c(C)c(C(=O)N2CCC(N3CCC(N(C)S(C)(=O)=O)CC3)CC2)n1` (stereo not shown) [Example 159ib] returned a Ki of 0.015 µM. Take `Cc1cccc([C@H]2CC[C@H](CNc3nc(C)nc(C(=O)N4CCC(N5CCC(N(C)S(C)(=O)=O)CC5)CC4)c3C)O2)c1` [Example 159ja]: the Ki is 0.018 µM. The molecule `Cc1ccc([C@H]2CC[C@@H](CNc3ncnc(C(=O)N4CCC(N5CCC(N(C)S(C)(=O)=O)CC5)CC4)c3C)O2)cc1` [Example 159jb] came in with an inhibitory constant (Ki) of 0.039 µM. Same read-out and setting: next, `CCC1CCC(CNc2ncnc(C(=O)N3CCC(N4CCC(N(C)S(C)(=O)=O)CC4)CC3)c2C)CC1` (stereo not shown) [Example 159k]: 0.022 µM; `Cc1nc(NC[C@@H]2CC[C@H](c3ccc(C(F)(F)F)cc3)O2)c(C)c(C(=O)N2CCC(N3CCC(N(C)S(C)(=O)=O)CC3)CC2)n1` [Example 159ka]: 0.019 µM; `COC1CCN(C2CCN(C(=O)c3ncnc(NCC4CCCC(c5ccc(F)cc5)C4)c3C)CC2)CC1` (stereo not shown) [Example 159kb]: 0.024 µM. On the same count and under the same terms, next, `Cc1c(NCC2CCC(C)CC2)ncnc1C(=O)N1CCC(N2CCC(N(C)S(C)(=O)=O)CC2)CC1` (stereo not shown) [Example 159l]: 0.022 µM; `Cc1c(NC[C@@H]2CC[C@H](c3ccc(C(F)(F)F)cc3)O2)ncnc1C(=O)N1CCC(N2CCC(N(C)S(C)(=O)=O)CC2)CC1` [Example 159la]: 0.019 µM; `COC1CCN(C2CCN(C(=O)c3ncnc(NCC4CCCC(c5ccc(Cl)cc5)C4)c3C)CC2)CC1` (stereo not shown) [Example 159lb]: 0.012 µM.

For `Cc1c(NC[C@@H]2CC[C@@H](c3ccc(C(F)(F)F)cc3)O2)ncnc1C(=O)N1CCC(N2CCC(N(C)S(C)(=O)=O)CC2)CC1` [Example 159ma], the Ki was determined as 0.02 µM. Still for that read-out and setting: next, `Cc1c(NCc2coc(-c3ccccc3)c2)ncnc1C(=O)N1CCC(N2CCC(N(C)S(C)(=O)=O)CC2)CC1` [Example 159mb]: 0.014 µM; `Cc1c(NCC2CCCC(c3ccccn3)C2)ncnc1C(=O)N1CCC(N2CCC(N(C)S(C)(=O)=O)CC2)CC1` (stereo not shown) [Example 159n]: 0.233 µM; `Cc1ccc(C2CCC(CNc3ncnc(C(=O)N4CCC(N5CCC(N(C)S(C)(=O)=O)CC5)CC4)c3C)O2)cc1F` (stereo not shown) [Example 159na]: 0.021 µM. With `Cc1c(NCC2Cc3ccccc32)ncnc1C(=O)N1CCC(N2CCC(N(C)S(C)(=O)=O)CC2)CC1` (stereo not shown) [Example 159nb], the affinity, expressed as Ki, was 0.088 µM. The molecule `Cc1c(NCC2CCC(C(C)(C)C)CC2)ncnc1C(=O)N1CCC(N2CCC(N(C)S(C)(=O)=O)CC2)CC1` (stereo not shown) [Example 159o] registered a Ki of 0.012 µM. The molecule `Cc1ccc(C2CCC(CNc3nc(C)nc(C(=O)N4CCC(N5CCC(N(C)S(C)(=O)=O)CC5)CC4)c3C)O2)cc1` (stereo not shown) [Example 159oa] showed an inhibition constant (Ki) of 0.029 µM. For `Cc1c(NCC2CCc3ccccc3O2)ncnc1C(=O)N1CCC(N2CCC(N(C)S(C)(=O)=O)CC2)CC1` (stereo not shown) [Example 159ob], the Ki was 0.118 µM. For the molecule `CNC(=O)C1CCN(C2CCN(C(=O)c3ncnc(NC[C@H]4CCC[C@@H](c5ccccc5)C4)c3C)CC2)CC1` [Example 159p], the inhibition constant Ki was determined as 0.007 µM.

Consider `Cc1c(NCC2CCC(c3cccc(C(F)(F)F)c3)O2)ncnc1C(=O)N1CCC(N2CCC(N(C)S(C)(=O)=O)CC2)CC1` (stereo not shown) [Example 159pa], for which the inhibitory constant (Ki) stood at 0.032 µM. As for `Cc1c(NCC2CCc3ccccc3C2)ncnc1C(=O)N1CCC(N2CCC(N(C)S(C)(=O)=O)CC2)CC1` (stereo not shown) [Example 159pb], the affinity corresponds to a Ki of 0.01 µM.

Turning to `Cc1c(NCC2CCC(c3ccc(F)cc3)C2)ncnc1C(=O)N1CCC(N2CCC(N(C)S(C)(=O)=O)CC2)CC1` (stereo not shown) [Example 159q], the affinity corresponds to a Ki of 0.01 µM. Consider `Cc1nc(NCC2CCC(c3cccc(C(F)(F)F)c3)O2)c(C)c(C(=O)N2CCC(N3CCC(N(C)S(C)(=O)=O)CC3)CC2)n1` (stereo not shown) [Example 159qa], for which the Ki came to 0.019 µM.

In the case of `Cc1c(NCC2Cc3ccccc3O2)ncnc1C(=O)N1CCC(N2CCC(N(C)S(C)(=O)=O)CC2)CC1` (stereo not shown) [Example 159qb], the inhibition constant Ki was 0.069 µM.

In the case of `Cc1c(NCC2CCC(c3nc4ccccc4[nH]3)CC2)ncnc1C(=O)N1CCC(N2CCC(N(C)S(C)(=O)=O)CC2)CC1` (stereo not shown) [Example 159r], the Ki was determined as 2.58 µM.

`Cc1cccc(C2CCC(CNc3ncnc(C(=O)N4CCC(N5CCC(N(C)S(C)(=O)=O)CC5)CC4)c3C)O2)c1` (stereo not shown) [Example 159ra] yielded a Ki of 0.022 µM.

`Cc1c(NCC2Cc3cc(Cl)ccc3O2)ncnc1C(=O)N1CCC(N2CCC(N(C)S(C)(=O)=O)CC2)CC1` (stereo not shown) [Example 159rb] had a Ki of 0.054 µM. Still for that read-out and setting: to `Cc1c(NCC2CN(c3ccccc3)CCO2)ncnc1C(=O)N1CCC(N2CCC(N(C)S(C)(=O)=O)CC2)CC1` (stereo not shown) [Example 159s] belongs 1.31 µM; to `Cc1cccc(C2CCC(CNc3nc(C)nc(C(=O)N4CCC(N5CCC(N(C)S(C)(=O)=O)CC5)CC4)c3C)O2)c1` (stereo not shown) [Example 159sa], 0.022 µM; to `Cc1c(NCC2COc3ccc(Cl)cc3C2)ncnc1C(=O)N1CCC(N2CCC(N(C)S(C)(=O)=O)CC2)CC1` (stereo not shown) [Example 159sb], 0.021 µM. With `Cc1c(NCC2(c3ccccc3)CCCCC2)ncnc1C(=O)N1CCC(N2CCC(N(C)S(C)(=O)=O)CC2)CC1` [Example 159t], the Ki was found to be 1.2 µM. In turn, `Cc1nc(NCC2CCC(c3ccc(C)c(F)c3)O2)c(C)c(C(=O)N2CCC(N3CCC(N(C)S(C)(=O)=O)CC3)CC2)n1` (stereo not shown) [Example 159ta] displayed an inhibition constant Ki of 0.027 µM. `Cc1c(NC[C@H]2C[C@H](c3ccc(Cl)cc3)C2)ncnc1C(=O)N1CCC(N2CCC(N(C)S(C)(=O)=O)CC2)CC1` [Example 159tb] yielded a Ki of 0.013 µM.

Turning to `Cc1c(NCc2ccc(-c3ccccc3)o2)ncnc1C(=O)N1CCC(N2CCC(N(C)S(C)(=O)=O)CC2)CC1` [Example 159u], the affinity, expressed as Ki, was 0.029 µM. Turning to `Cc1nc(NC[C@H]2CC[C@H](c3ccc(Cl)cc3)O2)c(C)c(C(=O)N2CCC(N3CCC(N(C)S(C)(=O)=O)CC3)CC2)n1` [Example 159ua], the Ki is 0.023 µM. Regarding `Cc1c(NC[C@H]2C[C@H](c3ccccc3)C2)ncnc1C(=O)N1CCC(N2CCC(N(C)S(C)(=O)=O)CC2)CC1` [Example 159ub], the Ki stood at 0.018 µM. `Cc1c(NCC2CCCN(c3ccc(C(F)(F)F)cc3)C2)ncnc1C(=O)N1CCC(N2CCC(N(C)S(C)(=O)=O)CC2)CC1` (stereo not shown) [Example 159w] came in with an inhibition constant (Ki) of 0.009 µM.

As to `Cc1c(NC[C@H]2CC[C@H](c3ccc(Cl)cc3)O2)ncnc1C(=O)N1CCC(N2CCC(N(C)S(C)(=O)=O)CC2)CC1` [Example 159wa], the Ki stood at 0.033 µM.

`Cc1c(NC[C@H]2C[C@@H](c3ccc(Cl)cc3)C2)ncnc1C(=O)N1CCC(N2CCC(N(C)S(C)(=O)=O)CC2)CC1` [Example 159wb] registered an inhibition constant (Ki) of 0.016 µM. For the molecule `Cc1c(NCC2CCc3ccccc32)ncnc1C(=O)N1CCC(N2CCC(N(C)S(C)(=O)=O)CC2)CC1` (stereo not shown) [Example 159x], the Ki was determined as 0.147 µM.

Regarding `COc1ccc(C2CCCC(CNc3ncnc(C(=O)N4CCC(N5CCC(N(C)S(C)(=O)=O)CC5)CC4)c3C)C2)cc1` (stereo not shown) [Example 159xa], the affinity corresponds to a Ki of 0.021 µM. `Cc1ccc([C@H]2CCC[C@@H](CNc3ncnc(C(=O)N4CCC(N5CCC(N(C)S(C)(=O)=O)CC5)CC4)c3C)C2)o1` [Example 159xb] had a Ki of 0.006 µM.

For `Cc1c(NCCc2cn(C)c3ccccc23)ncnc1C(=O)N1CCC(N2CCC(N(C)S(C)(=O)=O)CC2)CC1` [Example 159y], the inhibition constant Ki came to 0.169 µM. For the molecule `Cc1nc(NC[C@H]2CC[C@H](c3ccc(F)c(C)c3)O2)c(C)c(C(=O)N2CCC(N3CCC(N(C)S(C)(=O)=O)CC3)CC2)n1` [Example 159ya], the inhibition constant (Ki) stood at 0.018 µM.

Consider `Cc1c(NC[C@H]2C[C@@H](c3ccccc3)C2)ncnc1C(=O)N1CCC(N2CCC(N(C)S(C)(=O)=O)CC2)CC1` [Example 159yb], for which the inhibition constant (Ki) came to 0.015 µM. With `Cc1c(NCC2CCCC(c3ccc(F)cc3)C2)ncnc1C(=O)N1CCC(N2CCC(N(C)S(C)(=O)=O)CC2)CC1` (stereo not shown) [Example 159z], the Ki turned out to be 0.011 µM. `Cc1ccc(C2CCCC(CNc3ncnc(C(=O)N4CCC(N5CCC(N(C)S(C)(=O)=O)CC5)CC4)c3C)C2)cc1` (stereo not shown) [Example 159za] returned a Ki of 0.006 µM.

`Cc1c(NCC2CCCC(C(C)C)C2)ncnc1C(=O)N1CCC(N2CCC(N(C)S(C)(=O)=O)CC2)CC1` (stereo not shown) [Example 159zb] gave an inhibition constant Ki of 0.015 µM.

As for `CCN(C1CCN(C2CCN(C(=O)c3ncnc(NCc4ccc(Cl)c(Cl)c4)c3C)CC2)CC1)S(C)(=O)=O` [Example 160], the inhibition constant (Ki) was determined as 0.043 µM. As for `Cc1c(NCc2ccc(C(C)(C)C)cc2)ncnc1C(=O)N1CCCC(N2CCC(N(C)S(C)(=O)=O)CC2)CC1` (stereo not shown) [Example 161], the Ki amounted to 2 µM.

(Values after US8835440B2, “Cyclic pyrimidin-4-carboxamides as CCR2 receptor antagonists for treatment of inflammation, asthma and COPD” (Boehringer Ingelheim International GmbH, priority 2008, dated 2014).)
